Measurements as given in publication PMC7726444 (Frontiers in Pharmacology, 2020).

Key:
[1] = molecular target: T1, doubly truncated TPH1 (ΔNH102-ΔCOOH402) (Homo sapiens, UniProt P17752); experiment: Tryptophan hydroxylase enzymatic activity assay (HPLC quantification of 5-OH-Trp), doubly truncated TPH1; type: biochemical
T1 construct: The ΔNH102-ΔCOOH402 human TPH1 gene was cloned; six-His (C); made in house

[2] = molecular target: T1, doubly truncated TPH1 (ΔNH102-ΔCOOH402); experiment: Mechanism of action and kinetics analysis of TPH1 inhibition (Michaelis-Menten); type: biochemical
Method: 5-OH-Trp formation was measured either at a fixed concentration (200 µM) of the cofactor, BH4, and varying concentrations (0.625–20 µM) of the substrate, L-Trp, or in the presence of varying concentrations of BH4 (2.4–200 µM) and a fixed concentration (20 µM) of L-Trp. Kinetic parameters were estimated by fitting the Michaelis-Menten model to the data using nonlinear regression.
Human doubly truncated TPH1 (ΔNH102-ΔCOOH402) was used for kinetic protein-ligand interaction studies. The enzyme assays were performed as described above. […] When enzyme activity was measured as a function of substrate (L-Trp) concentration (0.625–20 µM), the concentration of the cofactor (BH4) was fixed at 200 µM.

[3] = tested on: 5-HT content in brain and serum; experiment: LC-MS/MS determination of 5-HT levels in brain and serum; type: in vivo, mouse; details: 100 mg/kg i.p. once daily for 4 days
Source text: Male CD-1 mice (Janvier Labs, Le Genest-St-Isle, France), 3 months of age were used. The animals in the different treatment groups were matched for age. The University of Barcelona’s Committee on Animal Use and Care approved the protocol. Animals were housed and tested in compliance with the guidelines described in the Guide for the Care and Use of Laboratory Animals ([Clark et al., 1997]) and following the European Union directives (2010/63/EU), FELASA and ARRIVE guidelines. All efforts were made to minimize animal suffering and the number of animals used. All animals were housed in groups of five in standard cages with ad libitum access to food and water and maintained under a 12-h dark/light cycle (starting at 7:30 AM), 22°C temperature, and 66% humidity. […]
Quantitative analysis of 5-HT was carried out by liquid chromatography coupled with tandem mass spectrometry (LC-MS/MS) using an Agilent 1,290 Infinity UHPLC chromatograph (Santa Clara, CA) coupled to a 6500 QTRAP mass spectrometer (ABSciex, Framingham, MA) equipped with an Ion Drive Turbo V ion source operating in positive ion mode. […] Sample-to-sample differences in recovery, liquid handling, and ionization efficiency were compensated for by normalizing to the amount of 5-HT-d4 detected in the samples. […]

[4] = parameters: method as in Wu and Delamere, 1997; details: dissociation of the protonated pyridine nitrogen; ref Wu and Delamere, 1997; cited from earlier work

T1 sequence (P17752 102-402, stated change not applied): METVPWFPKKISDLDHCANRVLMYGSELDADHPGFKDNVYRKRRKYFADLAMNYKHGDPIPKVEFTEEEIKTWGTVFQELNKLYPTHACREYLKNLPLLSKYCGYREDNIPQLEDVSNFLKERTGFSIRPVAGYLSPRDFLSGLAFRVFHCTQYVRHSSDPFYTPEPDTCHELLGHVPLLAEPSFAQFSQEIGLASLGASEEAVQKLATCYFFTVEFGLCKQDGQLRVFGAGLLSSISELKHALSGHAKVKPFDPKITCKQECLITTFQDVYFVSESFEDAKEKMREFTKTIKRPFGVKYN

SMILES: COc1ccc2[nH]c([S+]([O-])Cc3ncc(C)c(OC)c3C)nc2c1 (stereo not drawn) [Omeprazole]
- reduction of TPH1 activity ([1]; 100 µM compound, preliminary activity assay): more than 50%
- IC50 ([1]; doubly truncated TPH1, 20 µM L-Trp, 200 µM BH4, 37°C, mean (95% confidence interval), three experiments in duplicate): 3.09 µM
- Vmax ([2]; (A) L-Trp 0.625–20 µM, BH4 200 µM, omeprazole 1 µM): 24.96 (23.18–26.74) µmol/min/mg
- Vmax ([2]; (A) L-Trp 0.625–20 µM, BH4 200 µM, omeprazole 10 µM): 21.08 (18.84–23.32) µmol/min/mg
- Vmax ([2]; (A) L-Trp 0.625–20 µM, BH4 200 µM, omeprazole 100 µM): 7.03 (6.07–7.98) µmol/min/mg
- Vmax ([2]; (B) BH4 2.4–200 µM, L-Trp 20 µM, omeprazole 1 µM): 39.93 (37.18–42.69) µmol/min/mg
- Vmax ([2]; (B) BH4 2.4–200 µM, L-Trp 20 µM, omeprazole 10 µM): 31.06 (28.90–33.21) µmol/min/mg
- Vmax ([2]; (B) BH4 2.4–200 µM, L-Trp 20 µM, omeprazole 100 µM): 21.11 (18.96–23.26) µmol/min/mg
- mode of TPH1 inhibition ([2]; with respect to L-Trp and to BH4): non-competitive inhibitor
- 5-HT content in serum vs vehicle ([3]; serum): significantly higher 5-HT content
- 5-HT content in brain vs vehicle ([3]; whole-brain tissue): significantly higher 5-HT content
- pKa [4]: 7.1
